The source of these data is patent US20060166934A1, “Composition comprising phytosphingosine derivatives for apoptosis induction” (Tae-Yoon Kim, priority 2002, published 2006).

Data set [1] can be described thus: MTT assay, cytotoxicity in human keratinocyte cell line. Type of data set: cell-based. As to conditions: human, Cell viability. An outline of the steps:
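HaCaT keratinocytes, 1-2×10^4 cells per well in serum-free medium, treated 24 h with phytosphingosine derivatives (1-100 μM, DMSO vehicle). Viability by MTT (2 mg/ml, 4 h), formazan dissolved in DMSO, O.D. read at 540 nm.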
A general note: Tetrazolium dyes change colour on reduction, which living cells bring about.

Data set [2] has as its system A431 cells, human skin cancer cell line. In words: MTT assay, cytotoxicity in human skin cancer cell line. Type of data set: cell-based. To be noted: for Cell viability: A431, con = 100, in %. On the procedure: (§1) Firstly, the cytotoxicity is measured by the MTT assay. Phytosphingosine (PS), phytosphingosine-HCl (PS-HCl), C6-phytosphingosine (C6-PS), CLA-phytosphingosine (CLA-PS), tetraacetyl phytosphingosine (TAPS), and N-acetyl phytosphingosine (NAPS) are dissolved into DMSO to have the final concentration of 1-100 μM.
(§2) In order to study the effects of the compositions of the present invention on the cytotoxicity in the human keratinocyte cell line HaCaT cells, the cell viability is analyzed by the MTT (3-[4,5-dimethylthiazol-2-yl]-2,5-diphenyltetrazolium bromide) assay. HaCaT cells are supplied by Professor N. Fuseng of German Cancer Research in Germany. HaCaT cells are seeded in a density of 1×10^6 cells in a […] and cultured in DMEM (Dulbecco's Modified Eagle Medium) containing 10% fetal bovine serum (FBS, GIBCO), 100 units/ml penicillin, and 100 μg/ml streptomycin for 48 hours. They are treated with trypsin and 1-2×10^4 cells per well are seeded again in a 96-well plate by using a serum-free culture medium, about 3 hours after which they are cultured by treatment with phytosphingosine derivatives. After they are cultured for 24 hours, the MTT reagent is added at a concentration of 2 mg/ml, cultured for 4 hours, suspended in DMSO after removing the culture medium completely in order to measure O.D. at 540 nm. C2-ceramide is used for comparison.
In order to study the effects of the compositions of the present invention on the cytotoxicity in A431 cells, human skin cancer cell line, the MTT assay is used. The method of cell culture and MTT assay are the same as those in the above method. C2-ceramide is used for comparison.

Data set [3] deals with human umbilical vein endothelial cells (HUVEC). Kind of data set: MTT assay, cytotoxicity in HUVEC. The class given is cell-based. To be noted: for Cell viability: HUVEC, con = 100, in %. The method, then:
as §1, §2
The MTT assay is used for the above purpose. Primary human umbilical vein endothelial cells are cultured from the human umbilical vein. The method of cell culture and the MTT assay are the same as those in the above. C2-ceramide is used for comparison.

The nature of data set [4]: MTT assay, cytotoxicity in immune cells separated from spleen of mice. Type of data set: cell-based. To be noted: BDF, mouse. On the procedure:
(§3) The effect of the composition of the present invention on the cytotoxicity in immune cells (T cells, B cells, macrophages, monocytes, etc.) was examined. The spleen was removed from normal mice (BDF) and single cells were obtained from the spleen by mechanical aggregation method. And mononuclear cells containing T cells, B cells, macrophages and monocytes were isolated from single cells by density gradient centrifugation method using Ficoll Hypaque. Briefly, single cells were treated with PBS and overlayed on Ficoll Hypaque and centrifuged at 1500 rpm for 30 min. After centrifugation, the cells around the boundary of the Ficoll-Hapaque were collected and washed three times with PBS. The isolated cells were cultured for 24 hours in the presence of 1, 10, 50 and 100 μM of NAPS, TAPS, and PS to examine the effect of cytotoxicity, i.e. the degree of proliferation of the cells. C2-ceramide was used as control. The medium used in this experiment was RPMI 1640 suplemented with 10% of FBS and 100 μg/ml of penicillin and streptomycin.

Data set [5] deals with HaCaT cells human keratinocyte cell line. Kind of data set: MTT assay, combined administration with Vit D3 or calcipotriol. The class given is cell-based. On the procedure: In order to study the synergistic effect in the cytotoxicity when the compositions of the present invention are administered in combination with Vit D3 or calcipotriol, the cell viability is analyzed by MTT assay method in HaCaT cells human keratinocyte cell line.
To HaCaT cells, 1 μM of Vit D3 or calcipotriol, or 10 μM each of NAPS and TAPS, is administered singly or in combination with each other, and they are cultured for 24 hours. And the effects of these drugs on the cytotoxicity according to the single or combined administration are observed by MTT assay. C2-ceramide is used for comparison.

Data set [6] concerns immune cells (T cells, B cells, macrophages, monocytes) from spleen of mice. In words: MTT assay, cytotoxicity in immune cells separated from spleen of mice. Type of data set: cell-based. To be noted: mouse spleen immune cells, 24 hours, FIG. 2; read-out: IC50 (cytotoxicity). The method, then: as §3
Data set [7] deals with peripheral blood mononuclear cells (PBMC). In words: MTT assay, cytotoxicity in peripheral blood mononuclear cells. Type of data set: cell-based, human. To be noted: FIG. 3. On the procedure: The effects of the composition of the present invention on the cytotoxicity in immune cells (T cells, B cells, macrophages, monocytes, etc.) obtained from human blood were examined. The blood was obtained from healthy volunteers and PBMC from the blood by mechanical aggregation method. And mononuclear cells containing T cells, B cells, macrophages and monocytes were isolated from single cells by density gradient centrifugation method using Ficoll Hypaque. Briefly, single cells were treated with PBS and overlayed on Ficoll Hypaque and centrifuged at 1500 rpm for 30 min. After centrifugation, the cells around the boundary of the Ficoll-Hapaque were collected and washed three times with PBS. […] And RPMI with 10% of serum was used as a medium. The isolated cells were cultured for 24 hours in the presence of 1, 10, 50 and 100 μM of NAPS, TAPS, and PS to examine the effect of cytotoxicity, i.e. the degree of proliferation of the cells. C2-ceramide was used as control.

A further data set deals with HaCaT cells. Kind of data set: Cell cycle by flow cytometric analysis. The class given is cell-based, human. To be noted: FIG. 8. On the procedure:
The effects of the compositions of the present invention on the cell cycle are reviewed. In the flow cytometric analysis, the cells are treated with trypsin according to each time interval, collected and washed with PBS. They are fixed by using 80% ethanol, and propidium iodide and RNase are added to them. Thereafter, the cell cycle is analyzed by using a flow cytometer.
In general terms: A flow cytometer gives signals particle by particle.

With `CCCCCCCCCCCCCC[C@@H](O)[C@@H](O)[C@H](CO)NC(C)=O` [NAPS, N-acetyl phytosphingosine], in data set [1], the viability (usually a read-out of living cells in per cent, often relative to untreated cells) at 24 h, 1 µM amounted to 103 ± 6.9%; the viability at 24 h, 3 µM amounted to 99 ± 3.5%; the viability at 24 h, 10 µM was 86 ± 2.1%; the viability at 24 h, 30 µM was 17 ± 0.8%. Besides, in data set [2] (human, 24 h, 50 μM), the cytotoxicity is on record as 95-98%. Further, the cytotoxicity in data set [3] (human, 24 h, 30 μM) is given as 86-91%. In addition, the IC50 (as a rule, the midpoint of a concentration-inhibition curve) at 24 h in data set [4] is roughly 75 µM. For the same compound, in data set [5] (human, 24 h, 10 µM), the Cell viability is reported as 86 ± 2 and the cytotoxicity came to 14%.
As to tetraacetyl phytosphingosine [TAPS], the Cell viability came to 113 ± 11.2 in data set [2] (3 μM); 83 ± 13.9 in data set [2] (10 μM); 12 ± 1.7 in data set [2] (30 μM); 5 ± 1.2 in data set [2] (50 μM); 47 ± 8.4 in data set [3] (3.5 μM); 22 ± 1.9 in data set [3] (7 μM). Moreover, the Cell viability in data set [3] (15 μM) was 15 ± 0.7; in data set [3] (30 μM) it was 9 ± 0.5; in data set [5] (10 μM combined with Vit D3 (1 μM), 24 hours, HaCaT, in %), 34 ± 4; in data set [5] (10 μM combined with calcipotriol (1 μM), 24 hours, HaCaT, in %), 36 ± 8; in data set [5] (10 μM singly, 24 hours, HaCaT, in %) it was 76 ± 2. Further, the IC50 in data set [6] is 100 µM. Besides, the “concentration that shows the strong cytotoxicity” value in data set [7] (human PBMC) was determined as 50 µM. In addition, the “cytotoxicity to PBMC” value in data set [7] (up to 100 μM, 24 hours) is listed as “strong cytotoxicity”. In addition, the G2/M phase entry with HaCaT cells (thereafter up to 24 hours) is listed as “reduced continuously”; in the data set with HaCaT cells (up to 12 hours after treating) it was “increased relatively”. The “sub G1 phase (apoptotic cells)” value with HaCaT cells (thereafter up to 24 hours) was “increased relatively”. Besides, the S phase entry in the data set with HaCaT cells (up to 12 hours after treating) is given as “reduced”. The cytotoxicity worked out at 66% in data set [5] (10 μM combined application with Vit D3), 64% in data set [5] (10 μM combined application with calcipotriol) and 24% in data set [5] (10 μM single administration).
